In publication PMC6494845 (Scientific Reports, 2019):
Several values for one entry are separate records, joined by “and”; a condition that tells them apart may be missing. Identical values can stand only once. Like-named read-outs stand apart in the source and are kept apart here. Blank lines part the entries; values can stand above or below the compound they belong to.

How the values were obtained:
Biodistribution study = assay type: in vivo; settings: ICR mice, i.v.
Experimental: However, there was poor brain uptake at 2 min after injection with increased uptake over time, as follows: 0.49 ± 0.02% ID/g at 2 min, 1.02 ± 0.08% ID/g at 30 min, and 1.19 ± 0.06% ID/g at 60 min (Table 1).
ICR mice (male, 7-week-old, four mice per time point) were injected with [^18F]2 (1.85 MBq) dissolved in 10% ethanol–saline via a tail vein. Mice were sacrificed at the indicated time points (2, 30, and 60 min). Samples of blood and major tissues (heart, lung, liver, spleen, kidney, intestines, muscle, femur, and brain) were removed, weighed, and counted in a Wizard[2] automatic gamma counter (PerkinElmer, Waltham, MA, USA). Data are expressed as the percent injected dose per gram of tissue (% ID/g).

[1] = Metabolism study of [^18F]2 (radio-TLC of brain homogenates and blood); assay type: in vivo, ICR mice; settings: brain homogenate, 2 min after injection
Experimental: However, the radioligand disappeared almost entirely, and the new polar radioactive peaks appeared at the origin of radio-TLC at 30 and 60 min after injection (82% and 100%, respectively; Fig. 9c,d). The radioligand also disappeared in the blood samples, but at a rate slower than that of the brain samples (Fig. 9f–h). The polar radioactive products were further analyzed by radio-TLC using a polar developing solvent system, and the polar products moved toward the solvent front. […] Moreover, the polar products were not adsorbed onto calcium phosphate (7% in calcium phosphate pellet vs. 93% in supernatant), which is a component of the bone matrix.
Figure 9 Radio-TLC analysis of the brain homogenates and blood samples obtained at 2, 30, and 60 min after injection of [^18F]2 into ICR mice. […] The 60-min samples (d and h) were further analyzed by radio-TLC using a 1:1:0.01 mixture of dichloromethane–methanol–triethylamine as the developing solvents (e and i). TLC analysis followed by fluorescence detection of the brain homogenates obtained at 2, 30, and 60 min after injection of 2 into Balb/C nude mice (j). […]
[^18F]2 (19.6 MBq) dissolved in 10% ethanol–saline was injected into ICR mice via a tail vein. […] The supernatants were analyzed by radio-TLC using a 4:1 mixture of ethyl acetate–hexane or a 1:1:0.01 mixture of dichloromethane–methanol–triethylamine as the developing solvents.

[2] = Partition coefficient measurement (1-octanol/water); assay type: physicochemical; settings: 1-octanol and water
Experimental: Difluoroboron complex formation lowered the lipophilicity of the curcumin derivative based on TLC analysis.
Partition coefficient of [^18F]2 was measured according to the method described in the literature. [^18F]2 was dissolved in 1-octanol (1 mL) and diluted with water (1 mL). The solution was vortexed vigorously for 5 min and then centrifuged. The 1-octanol and aqueous layers were separated out, and a 500-μL aliquot of each layer was removed and measured using a gamma counter. Samples from the 1-octanol and aqueous layers were repartitioned until consistent values were obtained. The log P is expressed as the logarithm of the ratio of the counts per minute of 1-octanol versus that of water.

[3] = In vitro stability in PBS and FBS (radio-TLC); assay type: in vitro ADME; settings: for remaining at 2 h: 37 °C, 120 min, radio-TLC, read-out: % remaining radioligand
Experimental: Stability study was performed by incubating [^18F]2 in phosphate-buffered saline (PBS) and in fetal bovine serum (FBS) at 37 °C for 120 min.
Data are presented as % remaining radioligand.
[^18F]2 (21.5 MBq) was dissolved in a minimal volume of 10% ethanol–saline and incubated with PBS or 50% FBS (Gibco, Brooklyn, NY, USA) at 37 °C for 120 min. Aliquots were taken from the incubation solution after 0, 2, 30, 60, and 120 min. The aliquots were analyzed using a radio-TLC scanner.

Aβ(1–42) aggregates = target: T1, Aβ(1–42) aggregates (Homo sapiens, UniProt P05067); assay: In vitro binding assay using Aβ(1–42) aggregates (intrinsic fluorescence of the ligands); settings: Aβ(1–42) aggregates 1 μM, PBS, 37 °C, 1 h, ligand fluorescence
T1 construct: β-Amyloid(1–42) peptide was purchased from Bachem; purchased Bachem (Torrance, CA, USA)
Experimental: Binding constants of the ligands for Aβ(1–42) aggregates were determined using the intrinsic fluorescence of the ligands. The binding constant of CRANAD-2 was also measured for comparison. […] Considering the Kd values and feasibility of ^18F-labeling of all the ligands, ligand 2 was selected for further in vitro and in vivo studies.
Aβ(1–42) aggregates were prepared as described in the literature. Briefly, Aβ(1–42) peptide (200 μM) was dissolved in PBS and stirred gently at 37 °C for 2 d. The Aβ(1–42) aggregate formation was confirmed by thioflavin-T fluorescence assay. In vitro binding assays were carried out using the methods described in the literature with some modifications. Various concentrations of ligands (10–400 nM) were dissolved in DMSO, which were then added to PBS solutions of Aβ(1–42) aggregates (1 μM) charged in 96-well black clear-bottom plates. The final concentration of DMSO in a total volume of solution was 1%. Non-specific binding was determined in the absence of Aβ(1–42) aggregates. The reaction mixtures were incubated at 37 °C for 1 h, after which the fluorescence spectra of the ligands were obtained (excitation 510–560 nm and emission 590–660 nm) using a monochromator multimode microplate reader. All experiments were performed in triplicate. Kd values were determined using GraphPad Prism software 5.

HIV-1 protease = system: HIV-1 protease; design: method as in PMID 8087563; settings: cited from earlier work
Aβ(1–40) aggregates = target: Aβ(1–40) aggregates; design: method as in PMID 19807070; settings: cited from earlier work
[4] = design: method as in PMID 19807070; settings: cited from earlier work
[5] = design: method as in PMID 19807070; settings: cited from earlier work; remark: listed apart in the source
[6] = Metabolism study of 2 (TLC with fluorescence detection of brain homogenates); assay type: in vivo, Balb/C nude mice
Experimental: In order to further investigate the metabolites of [^18F]2, metabolism study of 2 was also performed; the brain homogenates were analyzed by TLC, followed by fluorescence detection.
After ex vivo optical imaging, the brain tissues were homogenized in 1 mL of acetonitrile and centrifuged. The supernatants were analyzed by TLC using a 4:1 mixture of ethyl acetate–hexane as the developing solvents, and the TLC plates were subjected to optical imaging for 1 sec (excitation, 570 nm; emission, 660 nm).

[7] = Excitation and emission spectra; assay type: physicochemical; settings: methanol, 2.5 μM
Experimental: Despite this, ligand 2 has sufficient red-shifted emission for optical imaging.
Ligand 2 was dissolved in methanol (2.5 μM), and its excitation and emission spectra were obtained using a Mithras[2] LB 943 monochromator multimode microplate reader (Berthold Technologies, Bad Wildbad, Germany).

Aβ plaques = Aβ plaques (Homo sapiens, UniProt P05067); assay: Fluorescent staining of Aβ plaques in mouse brain sections; design: species or system double transgenic mouse (Tg APP/PS-1)
Experimental: Fluorescent staining of Aβ plaques by 2 was performed using the brain sections from a double transgenic mouse (Tg APP/PS-1). Localization of the Aβ plaques was confirmed by immunofluorescent staining the adjacent brain sections from the transgenic mouse with an anti-Aβ antibody (Fig. 6). The Aβ plaques in the cerebral cortex and hippocampus regions of the transgenic mouse brain sections were stained with 2 (Fig. 6a–c). The staining pattern was consistent with that observed with an Aβ-specific antibody (Fig. 6d–f).
Figure 6 A double transgenic mouse brain section (a–c) and an age-matched wild-type mouse brain section (g–i) stained with 2. The adjacent double transgenic mouse brain section (d–f) and age-matched wild-type mouse brain section (j–l) stained with an Aβ-specific antibody. Magnification of the regions in white boxes (c,f,i and l). Scale bars: 100 μm (c,f,i and l) and 200 μm (the rest).
A double transgenic mouse (APP/PS1, male, 18 months old) was transcardially perfused with PBS, followed by 10% neutral buffered formalin (NBF) under anesthesia. The brain was then immediately removed from skull and post-fixed in 10% NBF for 24 h. The hippocampus and cerebral cortex regions were sliced using brain matrix, embedded in paraffin, and sectioned serially into 4 μm thickness. Brain sections from an age-matched wild-type mouse (male) were obtained as described above. […]

T1 sequence (P05067 672-713): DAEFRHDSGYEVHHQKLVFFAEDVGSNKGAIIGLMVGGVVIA
Aβ plaques, sequence (P05067 672-711 limits assumed): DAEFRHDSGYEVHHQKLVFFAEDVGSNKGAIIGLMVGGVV

Compound: CNc1ccc(/C=C/C2=[O+][B-](F)(F)OC(/C=C/c3ccc(OCCOCCF)cc3)=C2)cc1 [Ligand 1, BF2 complex of 4′-monomethylamino-4″-(2-(2-fluoroethoxy)ethoxy)curcuminoid]
Kd (Aβ(1–42) aggregates): 33.8 nM

Compound: COc1cc(/C=C/C2=CC(/C=C/c3ccc(O)c(OC)c3)=[O+][B-](F)(F)O2)ccc1O [difluoroboron-curcumin]
IC50 (HIV-1 protease): 24000 nM

Compound: CN(C)c1ccc(/C=C/C2=CC(/C=C/c3ccc(N(C)C)cc3)=[O+][B-](F)(F)O2)cc1 [CRANAD-2]
Kd (Aβ(1–40) aggregates): 38.7 nM and 38 nM
blue shift when binding to the Aβ aggregates [4]: 90 nm
emission ([4]; in methanol): 760 nm
stability in serum [5]: stability in the serum
Kd (Aβ(1–42) aggregates): 19.4 nM

Compound: COc1cc(/C=C/C2=[O+][B-](F)(F)OC(/C=C/c3ccc(OCCOCCF)c(OC)c3)=C2)ccc1O [Ligand 3, BF2 complex of 4′-(2-(2-fluoroethoxy)ethoxy)curcuminoid]
Kd (Aβ(1–42) aggregates): 138 nM

Compound: CN(C)c1ccc(/C=C/C2=[O+][B-](F)(F)OC(/C=C/c3ccc(OCC(O)CF)cc3)=C2)cc1 (stereo not drawn) [Ligand 4, BF2 complex of 4′-dimethylamino-4″-(3-fluoro-2-hydroxypropoxy)curcuminoid]
Kd (Aβ(1–42) aggregates): 15.3 nM

More lines, now with the values ahead:

Biodistribution, Blood (Biodistribution study; 2 min): 1.49 ± 0.12 % ID/g
Biodistribution, Brain (Biodistribution study; 2 min): 0.49 ± 0.02 % ID/g
Biodistribution, Femur (Biodistribution study; 2 min): 0.58 ± 0.10 % ID/g
Biodistribution, Heart (Biodistribution study; 2 min): 2.20 ± 0.57 % ID/g
Biodistribution, Kidney (Biodistribution study; 2 min): 3.25 ± 0.48 % ID/g
Biodistribution, Large intestine (Biodistribution study; 2 min): 0.24 ± 0.05 % ID/g
Biodistribution, Liver (Biodistribution study; 2 min): 26.92 ± 1.58 % ID/g
Biodistribution, Lung (Biodistribution study; 2 min): 3.56 ± 0.25 % ID/g
Biodistribution, Muscle (Biodistribution study; 2 min): 0.49 ± 0.19 % ID/g
Biodistribution, Small intestine (Biodistribution study; 2 min): 0.92 ± 0.13 % ID/g
Biodistribution, Spleen (Biodistribution study; 2 min): 12.59 ± 2.42 % ID/g
Biodistribution, Blood (Biodistribution study; 30 min): 2.50 ± 0.22 % ID/g
Biodistribution, Brain (Biodistribution study; 30 min): 1.02 ± 0.08 % ID/g
Biodistribution, Femur (Biodistribution study; 30 min): 0.91 ± 0.13 % ID/g
Biodistribution, Heart (Biodistribution study; 30 min): 1.93 ± 0.19 % ID/g
Biodistribution, Kidney (Biodistribution study; 30 min): 4.11 ± 0.46 % ID/g
Biodistribution, Large intestine (Biodistribution study; 30 min): 0.95 ± 0.11 % ID/g
Biodistribution, Liver (Biodistribution study; 30 min): 14.21 ± 1.39 % ID/g
Biodistribution, Lung (Biodistribution study; 30 min): 2.62 ± 0.29 % ID/g
Biodistribution, Muscle (Biodistribution study; 30 min): 0.97 ± 0.11 % ID/g
Biodistribution, Small intestine (Biodistribution study; 30 min): 6.47 ± 1.63 % ID/g
Biodistribution, Spleen (Biodistribution study; 30 min): 11.66 ± 2.70 % ID/g
Biodistribution, Blood (Biodistribution study; 60 min): 3.46 ± 0.81 % ID/g
Biodistribution, Brain (Biodistribution study; 60 min): 1.19 ± 0.06 % ID/g
Biodistribution, Femur (Biodistribution study; 60 min): 1.43 ± 0.14 % ID/g
Biodistribution, Heart (Biodistribution study; 60 min): 1.87 ± 0.20 % ID/g
Biodistribution, Kidney (Biodistribution study; 60 min): 2.58 ± 0.15 % ID/g
Biodistribution, Large intestine (Biodistribution study; 60 min): 2.16 ± 0.42 % ID/g
Biodistribution, Liver (Biodistribution study; 60 min): 9.36 ± 0.18 % ID/g
Biodistribution, Lung (Biodistribution study; 60 min): 2.34 ± 0.50 % ID/g
Biodistribution, Muscle (Biodistribution study; 60 min): 0.87 ± 0.05 % ID/g
Biodistribution, Small intestine (Biodistribution study; 60 min): 14.92 ± 4.06 % ID/g
Biodistribution, Spleen (Biodistribution study; 60 min): 10.72 ± 2.45 % ID/g
[^18F]2 remaining in the brain [1]: 84%
logP [2]: 2.58 ± 0.04
remaining at 120 min ([3]; bovine, PBS and fetal bovine serum (50%), both PBS and FBS, read-out: % remaining radioligand (stable in both PBS and FBS)): > 83%
remaining at 2 h ([3]; bovine, fetal bovine serum (50%), FBS (50% FBS in method)): 83%
remaining at 2 h ([3]; phosphate-buffered saline, PBS): 89%
Compound: CN(C)c1ccc(/C=C/C2=[O+][B-](F)(F)OC(/C=C/c3ccc(OCCOCC[18F])cc3)=C2)cc1 [[^18F]2]

fluorescent spot of 2 on TLC of brain homogenate ([6]; 2-min sample): a fluorescent spot was detected
fluorescent spot of 2 on TLC of brain homogenate ([6]; 30- and 60-min samples): did not appear
emission [7]: 650 nm
excitation [7]: 550 nm
staining of Aβ plaques (Aβ plaques; Tg APP/PS-1 mouse brain sections, cerebral cortex and hippocampus, 100 μM, 10 min): stained
staining of brain sections (Aβ plaques; age-matched wild-type mouse brain sections): no notable positive staining
Kd (Aβ(1–42) aggregates): 19.7 nM
Compound: CN(C)c1ccc(/C=C/C2=[O+][B-](F)(F)OC(/C=C/c3ccc(OCCOCCF)cc3)=C2)cc1 [Ligand 2, BF2 complex of 4′-dimethylamino-4″-(2-(2-fluoroethoxy)ethoxy)curcuminoid]
